Measurements from publication PMC11648681, “Development of machine learning models for the prediction of the skin sensitization potential of cosmetic compounds” (PeerJ, 2024).
Values joined by “and” are separate entries in the source; they are usually repeats but may differ in a detail not shown here. Equal values may be shown once. Read-outs that look alike come from different tables or passages of the source.

Legend:
[1] = CCK-8 cell viability of THP-1 cells after 48 h compound treatment in HaCaT/THP-1 co-culture; format: cell-based, human; details: human
Procedure: (§1) The co-culture system was set up according to the following described method. […] THP-1 cells were collected, centrifuged, and re-suspended in fresh RPMI-1640 medium supplemented with 10% FBS at 2 × 10^6 cells/mL. Then cells are distributed into HaCaT-seeded 96 wells plate with 80 μL (1.6 × 10^5 cells/well).
(§2) The compounds listed in Table 1 were dissolved in DMSO to create stock solutions with a concentration of 500 mg/mL. Eleven concentrations were subsequently prepared using two-fold serial dilutions. These stock solutions were then further diluted 250-fold in RPMI-1640 + 10% FBS medium. Finally, 80 μL of the prepared solutions were added 1:1 to the treated 96-well plates and incubated for 48 h at 37 °C and 5% CO2.
(§3) After 48 h of treatment, the treated cells were collected 100 μL cells per well. The supernatant medium was added 10 μL of CCK-8 (Life-iLab, Shanghai, China) solution to each well and incubated the plate in the incubator for 2–4 h. THP-1 cell viability was determined using standard calculation methods.
(§4) The cytotoxicity of 15 test compounds listed in Table 1 was assessed using THP-1 cells across a concentration range of 1,000 to 3.9 μg/mL. Cell viability was assessed after 48 h of treatment using the CCK-8 assay.

THP-1 cells = experiment: as above; format: cell-based, human; details: for Cell viability / final concentration used (highest concentration that maintained at least 80% cell viability): 48 h; for final concentration used (highest concentration that maintained at least 80% cell viability): CCK-8, single (not double) concentration
Procedure: as §1, §2, §3, §4

[2] = 48 h, THP-1, individual replicate values
[3] = 0.976563 μg/mL, THP-1, individual replicate values
[4] = 1.95312 μg/mL, THP-1, individual replicate values
[5] = 3.90625 μg/mL, THP-1, individual replicate values
[6] = 7.8125 μg/mL, THP-1, individual replicate values
[7] = 15.625 μg/mL, THP-1, individual replicate values
[8] = 31.25 μg/mL, THP-1, individual replicate values
[9] = 62.5 μg/mL, THP-1, individual replicate values
[10] = 125 μg/mL, THP-1, individual replicate values
[11] = 250 μg/mL, THP-1, individual replicate values
[12] = 500 μg/mL, THP-1, individual replicate values
[13] = 1000 μg/mL, THP-1, individual replicate values
[14] = THP-1 cells in co-culture with HaCaT cells, 48 h, THP-1, individual replicate values

Structure (SMILES) | Cell viability (THP-1 cells; [3]) | Cell viability (THP-1 cells; [4]) | Cell viability (THP-1 cells; [5]) | Cell viability (THP-1 cells; [6]) | Cell viability (THP-1 cells; [7]) | Cell viability (THP-1 cells; [8]) | Cell viability (THP-1 cells; [9]) | Cell viability (THP-1 cells; [10]) | Cell viability (THP-1 cells; [11]) | Cell viability (THP-1 cells; [12]) | Cell viability (THP-1 cells; [13]) | viability at 48 h, 0.976563 μg/mL [1, 14] | viability at 48 h, 1.95312 μg/mL [1, 14] | viability at 48 h, 3.90625 μg/mL [1, 14] | viability at 48 h, 7.8125 μg/mL [1, 14] | viability at 48 h, 62.5 μg/mL [1, 14] | viability at 48 h, 125 μg/mL [1, 14] | viability at 48 h, 250 μg/mL [1, 14] | viability at 48 h, 500 μg/mL [1, 14] | viability at 48 h, 1000 μg/mL [1, 14] | also measured
O=[N+]([O-])c1ccc(Cl)c([N+](=O)[O-])c1 [DNCB, 2,4-dinitrochlorobenzene] | 95.0987% | 97.1973% | 71.1839% | 7.332% | 7.211% | 7.274% | 9.193% | 8.767% | 9.112% | 10.9865% | 11.5516% | – | – | – | – | – | – | – | – | – | viability at 48 h, 0.976563 μg/mL [1, 2]: 102%; viability at 48 h, 1.95312 μg/mL [1, 2]: 88.2%; viability at 48 h, 3.90625 μg/mL [1, 2]: 75.9%; viability at 48 h, 7.8125 μg/mL [1, 2]: 6.82%; viability at 48 h, 15.625 μg/mL [1, 2]: 6.91%; viability at 48 h, 31.25 μg/mL ([1]; 31.25 μg/mL, 48 h, THP-1, individual replicate values, read-out: Cell viability): 7.1%; viability at 48 h, 62.5 μg/mL [1, 2]: 7.52%; viability at 48 h, 125 μg/mL [1, 2]: 8.76%; viability at 48 h, 250 μg/mL [1, 2]: 11%; viability at 48 h, 500 μg/mL [1, 2]: 13.4%; viability at 48 h, 1000 μg/mL [1, 2]: 19.9%
O=c1c(-c2ccccc2)c1-c1ccccc1 [diphenylcyclopropenone, Diphenylcyclopropenone] | 95.9291% | 135.468% | 42.1135% | 16.9362% | 18.4255% and 40.305% | 15.5674% | 19.5248% | 23.4184% | 23.9858% | 31.4681% | 33.1277% | 95.4% | 124% | 36.8% | 21.2% | 26.6% | 28.2% | 29.3% | 30.3% | 30.7% | viability at 48 h, 31.25 μg/mL ([1]; THP-1 cells in co-culture with HaCaT cells, 31.25 μg/mL, 48 h, THP-1, individual replicate values, read-out: Cell viability): 25.4%; final concentration used (highest concentration that maintained at least 80% cell viability) (THP-1 cells; THP-1 cells): 0.98 µg/mL
Sc1nc2ccccc2s1 [2-mercaptobenzothiazole] | 93.5695% | 85.722% | 80.7937% | 76.7668% | 73.0224% | – | 73.444% | 34.9417% | 27.3318% | 20.0359% | 12.1659% | 80.2% | 76.6% | 77.2% | 65.9% | 61.4% | 34.2% | 24.8% | 20.8% | 12.9% | viability at 48 h, 31.25 μg/mL ([1]; Cell viability): 63.3%; viability at 48 h, 15.625 μg/mL [1, 14]: 63.3%; Cell viability (THP-1 cells; human, 31.25 μg/mL): 70.7399%
C[S+](C)[O-] [DMSO, Dimethyl sulfoxide] | 104.048% and 100.267% | 96% and 94.5143% | 96.1619% and 89.1238% | – | – | – | – | – | – | 86.8476% and 87.3143% | 91.9905% and 89.9048% | – | – | – | – | – | – | – | – | – | IC50 (cytotoxicity) (THP-1 cells; THP-1 cells, 48 h treatment, CCK-8, range 1,000 to 3.9 μg/mL): greater than 1,000 μg/mL
CCCCCCCCCCCCOS(=O)(=O)[O-].[Na+] [SDS, Sodium dodecyl sulfate] | 99.2381% and 110.076% | 92.6381% and 90.6381% | 73.0476% and 93.5333% | 90.7238% and 93.3905% | 95.4381% and 98.4286% | 85.9333% and 91.0762% | 37.0381% and 32.0952% | 15.5905% and 18.1809% | 15.9333% and 15.6381% | 15.1524% and 16.781% | 14.1809% and 14.2952% | – | – | – | – | – | – | – | – | – | final concentration used (highest concentration that maintained at least 80% cell viability) (THP-1 cells; THP-1 cells): 31.25 µg/mL
